Structures can show the parent of a compound that is named as a salt.
Experiments:
MRSA strain LAC biofilms = experiment: MRSA biofilm assay with antibiotics plus PCCA and ultrasound (US-PCCA), survivors enumerated by plating; assay type: cell-based, S. aureus; conditions: for enhancement of tobramycin efficacy in the presence of PCCAs / increase in killing of biofilm-associated cells by US-PCCA: 30 s ultrasound; for enhancement of tobramycin efficacy in the presence of PCCAs: 20% duty cycle, FIG. 2B; for increase in killing of biofilm-associated cells by US-PCCA: vs antibiotic alone, 10% duty cycle, FIG. 2C
Description: Next, we tested the ability of 30 second (s) US-PCCA treatment to potentiate tobramycin efficacy. […] We hypothesized that US-PCCA might improve tobramycin penetration into biofilms and increase its efficacy. Mature biofilms were washed and transferred to a custom-built temperature-controlled 37° C. water bath alignment setup (FIG. 1B). Tobramycin and PCCAs were added and ultrasound applied at a range of rarefactional pressures (300-1200 kPa).
(§1) MRSA strain LAC biofilms were cultured overnight in brain-heart infusion (BHI) media in 12-well (FIGS. 2A and 2B) or 24-well (FIG. 2C) tissue culture treated plates. Biofilms were washed and treated with antibiotics. Where indicated, plates were transferred to a custom-built temperature-controlled 37° C. water bath alignment setup. PCCA were added and 30 s ultrasound exposure was applied at indicated pressures and 20% duty cycle (FIG. 2B) or 10% duty cycle (FIG. 2C). After 24 hours, biofilms were washed, sonicated for disruption and surviving cells were enumerated by serial dilution plating. Survivors were presented as log10 CFU/ml. The averages of n=3 biologically independent samples are shown. The error bars represent the standard deviation. Statistical significance was determined using a one-way analysis of variance (ANOVA) with Dunnett's (FIG. 2A) or Sidak's multiple comparison test (FIGS. 2B and 2C). **, ***, **** denotes P<0.005, P<0.0005, P<0.0001, respectively. LEV, levofloxacin; GENT, gentamicin; TOB, tobramycin; MUP, mupirocin; VAN, vancomycin; LIN, linezolid, RIF, 10 μg/ml rifampicin; ns, not significant; US-PCCA, ultrasound-stimulated phase change contrast agents.
MRSA strain LAC biofilms were cultured overnight in brain-heart infusion (BHI) media in 24-well tissue culture treated plates. Biofilms were washed and treated with antibiotics and transferred to a custom-built temperature-controlled 37° C. water bath alignment setup. PCCAs were added and 30 s ultrasound exposure was applied at 300 kPa or 600 kPa (FIG. 3B and 3C) and 10% duty cycle. After 24 h, biofilms were washed, sonicated for disruption and surviving cells were enumerated by serial dilution plating (FIG. 3A) or stained with crystal violet (FIG. 3B). The averages of n=6 biologically independent samples are shown. The error bars represent the standard deviation. Statistical significance was determined using a one-way analysis of variance (ANOVA) with Dunnett's multiple comparison test (a) or multiple unpaired t-test (2-tailed) (FIG. 3C). *, **, **** denotes P<0.05, P<0.005, P<0.0001, respectively. TOB, 58 μg/ml tobramycin; RL, 30 μg/ml rhamnolipids; DAP, 100 μg/ml daptomycin; LIN, 15 μg/ml linezolid; RIF, 10 μg/ml rifampicin; ADEP, 5 μg/ml acyldepsipeptide; ns, not significant; US-PCCA, ultrasound-stimulated phase change contrast agents.
Biofilm assays were performed using the USA300 MRSA strain LAC. It is a highly characterized community-acquired MRSA (CA-MRSA) strain isolated in 2002 from an abscess of an inmate in Los Angeles County jail in California^67. LAC was cultured overnight (18 h) in brain heart infusion (BHI) media (Oxoid) in biological triplicates.

[1] = test system: MRSA biofilms (USA300 LAC); experiment: MRSA biofilm assay, antibiotics alone, survivors enumerated by plating; assay type: cell-based, S. aureus; conditions: antibiotic alone at clinically achievable concentration (Cmax), 24 hours of drug treatment of mature biofilm, FIG. 2A
Description: Antibiotics were chosen based on clinical relevance or previously reported anti-biofilm efficacy in vitro. Mature MRSA biofilms (USA300 LAC) were cultured for 24 hours in tissue culture treated plates before the addition of antibiotics. Following 24 hours of drug treatment, biofilms were washed, and survivors were enumerated by plating.
as §1
Biofilm assays were performed using the USA300 MRSA strain LAC. It is a highly characterized community-acquired MRSA (CA-MRSA) strain isolated in 2002 from an abscess of an inmate in Los Angeles County jail in California^67. LAC was cultured overnight (18 h) in brain heart infusion (BHI) media (Oxoid) in biological triplicates. Each culture was diluted 1:150 in fresh media and 2 or 3 ml was added to the wells of 24-well or 12-well tissue culture treated plates (Costar), respectively. Biofilms were covered with Breathe-Easier sealing strips (Sigma) and incubated at 37° C. for 24 h. Biofilms were carefully washed twice with PBS and fresh BHI media containing antibiotics was added. Biofilms were covered and incubated at 37° C. for 24 h. Biofilms were carefully washed twice with PBS before dispersal in a sonicating water bath (5 min) and vigorous pipetting. Surviving cells were enumerated by serial dilution and plating. […] For daptomycin activity, the media was supplemented with 50 mg/L of Ca^2+ ions. Where indicated tobramycin was supplemented with 30 μg/ml rhamnolipids^22 (50/50 mix of mono- and di-rhamnolipids, Sigma). Where indicated biofilms were treated with PCCA and ultrasound. For crystal violet staining, biofilms were carefully washed twice with PBS, and dried in a 65° C. oven for 1 h. Biofilms were stained with 1 ml 0.4% crystal violet for 5 min, and washed 3× with PBS. Wells were photographed, and stain was solubilized with 2 ml 5% acetic acid and absorbance measured at 570 nm.

CCCCCC/C=C\CCCCCCCC(=O)O [Palmitoleic acid, palmitoleic acid]
vancomycin killing of biofilms (MRSA strain LAC biofilms; 50 μg/ml vancomycin, 30 μg/ml palmitoleic acid, with US-PCCA (30 s, 1 MHz, 600 kPa, 10% duty cycle), FIG. 12): drastically improves vancomycin killing

NC[C@H]1O[C@H](O[C@H]2[C@H](O)[C@@H](O[C@H]3O[C@H](CO)[C@@H](O)[C@H](N)[C@H]3O)[C@H](N)C[C@@H]2N)[C@H](N)C[C@@H]1O [Tobramycin, tobramycin]
enhancement of tobramycin efficacy in the presence of PCCAs (MRSA strain LAC biofilms; 300 kPa): significantly enhanced | enhancement of tobramycin efficacy in the presence of PCCAs (MRSA strain LAC biofilms; 600 kPa): significantly enhanced | enhancement of tobramycin efficacy in the presence of PCCAs (MRSA strain LAC biofilms; 1200 kPa): significantly enhanced | reduction in surviving biofilm cells [1]: significant reduction

C[C@H]1COc2c(N3CCN(C)CC3)c(F)cc3c(=O)c(C(=O)O)cn1c23 [levofloxacin]
reduction in surviving biofilm cells [1]: no efficacy

CC(=O)NC[C@H]1CN(c2ccc(N3CCOCC3)c(F)c2)C(=O)O1 [linezolid]
reduction in surviving biofilm cells [1]: significant reduction

C/C(=C\C(=O)OCCCCCCCCC(=O)O)C[C@@H]1OC[C@H](C[C@@H]2O[C@H]2[C@@H](C)[C@H](C)O)[C@@H](O)[C@H]1O [mupirocin]
increase in killing of biofilm-associated cells by US-PCCA (MRSA strain LAC biofilms): 41% | reduction in surviving biofilm cells [1]: significant reduction

CN[C@H](CC(C)C)C(=O)N[C@H]1C(=O)N[C@@H](CC(N)=O)C(=O)N[C@H]2C(=O)N[C@H]3C(=O)N[C@H](C(=O)N[C@H](C(=O)O)c4cc(O)cc(O)c4-c4cc3ccc4O)[C@H](O)c3ccc(c(Cl)c3)Oc3cc2cc(c3O[C@@H]2O[C@H](CO)[C@@H](O)[C@H](O)[C@H]2O[C@H]2C[C@](C)(N)[C@H](O)[C@H](C)O2)Oc2ccc(cc2Cl)[C@H]1O [vancomycin, vancomycin hydrochloride]
increase in killing of biofilm-associated cells by US-PCCA (MRSA strain LAC biofilms): 93% | reduction in surviving biofilm cells [1]: significant reduction

gentamicin
reduction in surviving biofilm cells [1]: no efficacy
